pIC50: −log10 of the molar value. Where a name gives a salt, the structure may show the parent alone. Read-outs that look alike come from different tables or passages of the source.
Columns and labels:
AOC1 = AOC1 (Homo sapiens (Human), UniProt P19801); assay: AOC1 biochemical assay (Amplex Red)
Method: The Amplex® Red Assay (available from Thermo Fisher Scientific) provides a sensitive method for the detection of H2O2 generated during enzymatic reactions like the amine oxidation catalyzed by AOC1. The assay reagent is a colorless substrate (N-acetyl-3,7-dihydroxyphenoxazine) that reacts in a 1:1 stoichiometry with hydrogen peroxide (H2O2) to produce the fluorescent dye resorufin (7-hydroxyphenoxazin-3-one, excitation/emission maxima=570/585 nm).
An aliquot of 3 μL of the compound dilution is added to a 384 well plate (Optiplate, PS, flat bottom F, black, PERKIN ELMER, #6007270) in a DMSO concentration of 6.6%.
An AOC1 enzyme aliquot (#8297-AO-010, R&D Systems) is thawed on ice, diluted in reaction buffer and added in a volume of 7 μL to the wells to give a final assay concentration of 1 ng/well. After incubation of inhibitor and enzyme for 30 minutes at 37° C., the enzymatic reaction is started with the addition of 10 μL of Amplex® Red reaction mix (final assay concentration: 100 mM sodiumphosphate, 120 μM Amplex® Red reagent (#A22177 Molecular Probes), 1.5 U/mL Horseradish Peroxidase (#P8375 Sigma-Aldrich), 200 μM putrescine (#P7505 Sigma-Alrdich), 0.05% Pluronic F-127 (#P3000MP Sigma-Aldrich), pH 7.4, 37° C.).
After an incubation for 30 minutes at 37° C. the turnover of the substrate is determined directly (or after the addition of an excess of an amine-oxidase inhibitor) with a fluorescence reader (Ex 540 nm/Em 590 nm) like Envision 2104 Multilabel Reader (PERKIN ELMER).

AOC2 = AOC2 (Homo sapiens (Human), UniProt O75106); assay: AOC2 biochemical assay (Amplex Red)
Sequence of AOC2 (O75106 whole entry): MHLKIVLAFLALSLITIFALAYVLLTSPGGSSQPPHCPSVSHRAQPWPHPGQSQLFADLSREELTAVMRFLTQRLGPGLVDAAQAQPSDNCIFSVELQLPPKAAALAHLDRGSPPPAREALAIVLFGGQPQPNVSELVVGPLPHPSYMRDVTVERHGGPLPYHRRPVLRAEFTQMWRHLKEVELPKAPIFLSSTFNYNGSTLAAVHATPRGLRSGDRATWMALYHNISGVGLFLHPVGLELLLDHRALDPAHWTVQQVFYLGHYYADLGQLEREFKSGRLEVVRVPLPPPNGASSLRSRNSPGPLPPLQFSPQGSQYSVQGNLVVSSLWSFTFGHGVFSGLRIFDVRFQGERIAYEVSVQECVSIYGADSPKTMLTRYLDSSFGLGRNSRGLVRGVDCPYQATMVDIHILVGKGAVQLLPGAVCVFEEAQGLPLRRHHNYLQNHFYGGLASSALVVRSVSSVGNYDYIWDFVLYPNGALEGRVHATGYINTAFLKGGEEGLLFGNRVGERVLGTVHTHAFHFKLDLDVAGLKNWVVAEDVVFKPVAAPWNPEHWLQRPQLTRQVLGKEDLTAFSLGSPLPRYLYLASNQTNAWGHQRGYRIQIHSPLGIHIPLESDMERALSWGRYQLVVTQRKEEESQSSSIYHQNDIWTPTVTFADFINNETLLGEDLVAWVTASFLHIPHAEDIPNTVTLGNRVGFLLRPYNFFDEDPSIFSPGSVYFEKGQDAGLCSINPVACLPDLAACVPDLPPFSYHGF
Method: An aliquot of 5 μL of the compound dilution is added to a 96 well plate (flat bottom F, black, GREINER bio-one, #655900) in a DMSO concentration of 2%. […] Cells are cultured for 3 days in EMEM culture medium containing 10% FCS (#04-00-1A, Biological Industries). After washing twice with ice cold PBS, cells are lysed by mechanic homogenation and cleared supernatants are shock frozen in liquid nitrogen and stored at -80° C. […] An Aliquot of 45 μL is added to the compound dilution and incubated for 30 min at 37° C. The enzymatic reaction is started with the addition of 50 μL of Amplex® Red reaction mix (final assay concentration: 100 mM sodiumphosphate, 120 μM Amplex® Red reagent (#A22177 Molecular Probes), 1.5 U/mL Horseradish Peroxidase (#P8375 Sigma-Aldrich), 2 mM phenylethylamine (#[…] Sigma-Aldrich), 0.05% Pluronic F-127 (#P3000MP Sigma-Aldrich), pH 7.4, 37° C.). The turnover per time of the substrate is determined directly with a fluorescence reader (Ex 540 nm/Em 590 nm) like Envision 2104 Multilabel Reader (PERKIN ELMER) for 60 min.

human AOC3 enzyme = human AOC3 enzyme (Homo sapiens (Human), UniProt Q16853); assay: AOC3 biochemical assay (MAO-Glo)
Sequence of human AOC3 enzyme (Q16853 whole entry): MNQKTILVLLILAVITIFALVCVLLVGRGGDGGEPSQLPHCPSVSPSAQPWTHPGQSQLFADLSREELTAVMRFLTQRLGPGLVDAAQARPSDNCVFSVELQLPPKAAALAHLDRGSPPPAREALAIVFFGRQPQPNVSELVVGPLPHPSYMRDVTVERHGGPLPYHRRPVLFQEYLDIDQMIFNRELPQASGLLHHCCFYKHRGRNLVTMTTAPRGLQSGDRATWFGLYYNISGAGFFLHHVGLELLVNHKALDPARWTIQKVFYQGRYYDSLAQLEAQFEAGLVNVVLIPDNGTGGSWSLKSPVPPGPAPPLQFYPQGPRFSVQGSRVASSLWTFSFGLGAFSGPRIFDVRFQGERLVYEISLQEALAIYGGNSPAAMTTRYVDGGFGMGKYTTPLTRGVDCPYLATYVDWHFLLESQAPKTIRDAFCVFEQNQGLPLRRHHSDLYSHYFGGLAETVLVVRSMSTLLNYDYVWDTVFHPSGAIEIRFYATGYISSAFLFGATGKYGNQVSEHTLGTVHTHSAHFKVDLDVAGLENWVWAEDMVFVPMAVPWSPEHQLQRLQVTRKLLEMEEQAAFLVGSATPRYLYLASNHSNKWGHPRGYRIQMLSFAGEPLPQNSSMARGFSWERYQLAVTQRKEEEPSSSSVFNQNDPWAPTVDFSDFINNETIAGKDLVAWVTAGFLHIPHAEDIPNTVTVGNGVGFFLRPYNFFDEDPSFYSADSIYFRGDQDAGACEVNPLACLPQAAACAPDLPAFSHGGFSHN
Source text: The MAO-Glo™ Assay (commercially available from PROMEGA, #V1402) provides a sensitive method for the measurement of monoamine oxidase (MAO) activity (Valley, M. P. et al., 2006, Anal. Biochem. 359: 238-246) from a variety of tissues, biofluids or recombinant expressed or purified enzymes. As substrate a derivate of the beetle luciferin ((4S)-4,5-dihydro-2-(6-hydroxybenzothiazolyl)-4-thiazole-carboxylic acid) is used, which is oxidized at a primary amine moiety. After a spontaneous elimination and a catalyzed esterase reaction, the turnover of the luciferine by the luciferase is recorded as a signal of AOC3 activity.
An aliquot of 3 μL of the compound dilution is added to a 384 well plate (Optiplate, PS, flat bottom, white, PERKIN ELMER, #6007290) with a final DMSO concentration of 6.6%. Recombinant CHO cells, overexpressing the human (1500 cells/well), mouse (1000 cells/well) or rat (500 cells/well) AOC3 enzyme are diluted in reaction buffer and added in a volume of 15 μL to the wells. After incubation for 20 minutes at 37° C., 2 μL of MAO substrate (dissolved in DMSO at 16 mM, adjusted to assay concentration in reaction buffer to a final assay concentration of 20 μM) is added and further incubated for 60 minutes at 37° C. The turnover of the substrate is determined by the addition of 20 μL of the detection-mix which was generated by the addition of reconstitution buffer with esterase (PROMEGA, #V1402) to the luciferine detection reagent (PROMEGA, #V1402). After an incubation period of 20 minutes, the luminescent signal is measured with Envision 2104 Multilabel Reader (PERKIN ELMER).

[1] = comparison table, read-out: IC50 AOC1
[2] = comparison table, read-out: IC50 AOC2
[3] = comparison table, read-out: IC50 AOC3

Sequence of AOC1 (P19801 20-751): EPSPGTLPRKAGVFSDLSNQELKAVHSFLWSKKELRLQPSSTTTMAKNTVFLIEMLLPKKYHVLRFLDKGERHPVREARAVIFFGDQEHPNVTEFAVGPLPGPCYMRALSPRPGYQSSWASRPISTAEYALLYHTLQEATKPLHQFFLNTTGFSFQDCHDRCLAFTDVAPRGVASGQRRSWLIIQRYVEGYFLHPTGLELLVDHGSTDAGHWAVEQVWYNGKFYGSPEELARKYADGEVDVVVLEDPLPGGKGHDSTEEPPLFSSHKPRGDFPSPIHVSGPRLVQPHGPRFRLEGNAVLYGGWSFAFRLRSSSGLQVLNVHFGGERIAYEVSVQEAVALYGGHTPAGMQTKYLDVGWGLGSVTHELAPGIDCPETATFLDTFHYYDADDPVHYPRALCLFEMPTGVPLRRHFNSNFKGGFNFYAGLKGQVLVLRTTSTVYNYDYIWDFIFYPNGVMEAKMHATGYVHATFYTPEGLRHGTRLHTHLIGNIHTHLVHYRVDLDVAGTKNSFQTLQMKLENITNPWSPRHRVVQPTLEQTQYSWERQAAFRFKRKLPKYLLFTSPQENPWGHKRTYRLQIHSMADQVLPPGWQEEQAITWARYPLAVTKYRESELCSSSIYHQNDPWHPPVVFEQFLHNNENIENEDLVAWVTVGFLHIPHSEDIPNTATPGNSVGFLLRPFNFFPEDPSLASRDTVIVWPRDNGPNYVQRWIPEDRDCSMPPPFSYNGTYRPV

Row | Structure (SMILES) | pIC50 (AOC1; read-out: AOC1 IC50) | pIC50 (AOC2; read-out: AOC2 IC50) | pIC50 (human AOC3 enzyme; read-out: AOC3 IC50) | also measured
1 | CN(C)S(=O)(=O)c1ccc(OC/C(=C/F)CN)cc1 [Compound 14 of WO 2013/163675, reference compound] |  |  |  | pIC50 (AOC1; [1]): < 4.30; fold less active against AOC2 as compared to AOC3 (ratio IC50 AOC2/IC50 AOC3) (AOC2): ca. 145 fold; pIC50 (AOC2; [2]): 5.93; pIC50 (AOC2; read-out: IC50 AOC2): 5.93; pIC50 (human AOC3 enzyme; [3]): 8.10
2 | CNC(=O)[C@H]1[C@@H]2CN(S(=O)(=O)c3ccc(OC/C(=C/F)CN)nc3)C[C@@H]21 [Example 01, trans-3-[6-((E)-2-Aminomethyl-3-fluoro-allyloxy)-pyridine-3-sulfonyl]-3-aza-bicyclo[3.1.0]hexane-6-carboxylic acid methylamide trifluoroacetate] | 4.36 | 6.79 | 7.92 | 
3 | NC/C(=C\F)COc1cnc(N2CCC(O)CC2)nc1 [Example 2 of WO 2018/027892, reference compound] |  |  |  | pIC50 (AOC1; [1]): 6.57; pIC50 (human AOC3 enzyme; [3]): 7.70
4 | CCC(=O)NC1CCN(S(=O)(=O)c2ccc(OC/C(=C/F)CN)nc2)CC1 [Example 02] | < 4.30 | 5.94 | 7.48 | 
5 | CNC(=O)[C@@]12C[C@@H]1CN(S(=O)(=O)c1ccc(OC/C(=C/F)CN)nc1)C2 [Example 03] | 4.63 | 5.99 | 7.60 | 
6 | NC/C(=C\F)COc1ccc(S(=O)(=O)N2CCC(N3CCNC3=O)CC2)cn1 [Example 04] | < 4.30 | 6.09 | 7.31 | 
7 | CO[C@H]1CCN(c2ncc(OC/C(=C/F)CN)cn2)C1 [Example 5 of WO 2018/027892, reference compound] |  |  |  | pIC50 (AOC1; [1]): 6.57; pIC50 (AOC2; [2]): 6.30; pIC50 (human AOC3 enzyme; [3]): 7.89
8 | NC/C(=C\F)COc1cnc(N2CC[C@H](O)C2)nc1 [Example 6 of WO 2018/027892, reference compound] |  |  |  | pIC50 (AOC1; [1]): 5.93; pIC50 (AOC2; [2]): 5.95; pIC50 (human AOC3 enzyme; [3]): 7.23
9 | CC(=O)N[C@H]1CCCN(S(=O)(=O)c2ccc(OC/C(=C/F)CN)nc2)C1 [Example 06] | < 4.30 | 6.23 |  | 
10 | CNC(=O)NC1CCN(S(=O)(=O)c2ccc(OC/C(=C/F)CN)nc2)CC1 [Example 07] | < 4.30 | 6.27 | 7.43 | 
11 | CN(C(N)=O)C1CCN(S(=O)(=O)c2ccc(OC/C(=C/F)CN)nc2)CC1 [Example 08] | < 4.30 | 6.28 | 7.43 | 
12 | NC/C(=C\F)COc1ccc(S(=O)(=O)N2CCC(C(=O)N3CCOCC3)(c3ccccc3)CC2)cn1 [Example 09] | 5.21 | 6.31 | 7.41 | 
13 | NC/C(=C\F)COc1ccc(S(=O)(=O)N2CCC(C(=O)N3CCOCC3)CC2)cn1 [Example 10] | < 4.30 | 6.39 | 7.28 | 
14 | CCNC(=O)C1CCN(S(=O)(=O)c2ccc(OC/C(=C/F)CN)nc2)CC1 [Example 11] | < 4.30 | 6.40 | 7.92 | 
15 | CN(C)C(=O)C1CCN(S(=O)(=O)c2ccc(OC/C(=C/F)CN)nc2)CC1 [Example 12] | < 4.30 | 6.41 | 7.42 | 
16 | NC/C(=C\F)COc1ccc(S(=O)(=O)N2CCC(C(=O)N3CCC3)CC2)cn1 [Example 13] | < 4.30 | 6.45 | 7.37 | 

Row | Structure (SMILES) | pIC50 (AOC1; read-out: AOC1 IC50) | pIC50 (AOC2; read-out: AOC2 IC50) | pIC50 (human AOC3 enzyme; read-out: AOC3 IC50) | also measured
17 | CC(=O)N1CC(C2CCN(S(=O)(=O)c3ccc(OC/C(=C/F)CN)nc3)CC2)C1 [Example 14] | 4.85 | 6.51 | 7.39 | 
18 | CC(=O)NCC1CCN(S(=O)(=O)c2ccc(OC/C(=C/F)CN)nc2)CC1 [Example 15] | < 4.30 | 6.58 | 7.42 | 
19 | CN(C)C(=O)CC1CCN(S(=O)(=O)c2ccc(OC/C(=C/F)CN)nc2)CC1 [Example 16] | < 4.30 | 6.58 | 7.52 | 
20 | NC/C(=C\F)COc1ccc(S(=O)(=O)N2CCC(C(N)=O)CC2)cn1 [Example 17] | < 4.30 | 6.60 | 8.10 | 
21 | CC1(O)CN(S(=O)(=O)c2ccc(OC/C(=C/F)CN)nc2)C1 [Example 18] | < 4.30 | 6.61 | 7.43 | 
22 | CCNC(=O)CC1CCN(S(=O)(=O)c2ccc(OC/C(=C/F)CN)nc2)CC1 [Example 19] | < 4.30 | 6.67 | 7.49 | 
23 | CNC(=O)[C@@H]1CCN(S(=O)(=O)c2ccc(OC/C(=C/F)CN)nc2)C1 [Example 24] | < 4.30 | 6.78 |  | 
24 | CNC(=O)[C@H]1CCN(S(=O)(=O)c2ccc(OC/C(=C/F)CN)nc2)C1 [Example 29] | < 4.30 | 6.82 |  | 
25 | COCCN(C)C(=O)[C@H]1[C@@H]2CN(S(=O)(=O)c3ccc(OC/C(=C/F)CN)nc3)C[C@@H]21 [Example 59] | 4.56 |  | 7.74 | 
26 | NC/C(=C\F)COc1ccc(S(=O)(=O)N2CCC(C(=O)NCCO)CC2)cn1 [Example 62] | < 4.30 |  | 7.74 | 
27 | NC/C(=C\F)COc1ccc(S(=O)(=O)N2CCC(C(=O)NC3CC3)CC2)cn1 [Example 63] | < 4.30 |  | 7.72 | 
28 | NC/C(=C\F)COc1ccc(S(=O)(=O)N2CCC(C(=O)NCCF)CC2)cn1 [Example 64] | < 4.30 |  | 7.77 | 
29 | CC(F)(F)CNC(=O)C1CCN(S(=O)(=O)c2ccc(OC/C(=C/F)CN)nc2)CC1 [Example 65] | < 4.30 |  | 7.96 | 
30 | COCCNC(=O)[C@H]1[C@@H]2CN(S(=O)(=O)c3ccc(OC/C(=C/F)CN)nc3)C[C@@H]21 [Example 66] | 4.51 |  | 7.64 | 
31 | NC/C(=C\F)COc1ccc(S(=O)(=O)N2CC[C@H](O)C2)cc1 [Reference compound B, reference compound] |  |  |  | IC50 (AOC1; comparison table, unit μM, read-out: IC50 AOC1): > 50 µM; pIC50 (human AOC3 enzyme; [3]): 7.57

Reference: patent US12178809B2, “Pyridinyl sulfonamide derivatives, pharmaceutical compositions and uses thereof” (Boehringer Ingelheim International GmbH, priority 2018, dated 2024)
